Laboratory results taken from patent publication US11142524B2, “Substituted-3H-imidazo[4,5-c]pyridine and 1H-pyrrolo[2,3-c]pyridine series of novel Ectonucleotide Pyrophosphatase/Phosphodiesterase-1 (ENPP1) and stimulator for interferon genes (STING) modulators as cancer immunotherapeutics” (Stingray Therapeutics, Inc., priority 2018, dated 2021).
Read-outs that look alike come from different tables or passages of the source.

Tests used:
[1] = target: Recombinant Human ENPP-2/Autotaxin Protein (Homo sapiens (Human), UniProt Q13822); experiment: ENPP2 Inhibition Assay; format: biochemical
Experimental: Assay Buffer: 10 mM CaCl2, 5 mM MgCl2, 50 mM Tris, 0.02% Brij-35, pH 8.5. Substrate: 2 mM Bis(p-Nitrophenyl) Phosphate Sodium Salt (Sigma Cat # N3002). Enzyme: 0.2 ng/μL Recombinant Human ENPP-2/Autotaxin Protein (R&D Cat #5255-EN), PF-3080 in DMSO in 96-well clear assay plates
(§1) An eight point serial dilution of drugs was prepared in 10× in assay buffer with the final assay concentrations starting at 10 μM, 3 μM, 1 μM, 0.3 μM . . . 0 μM. A dilution of DMSO was included as a control. The assay plate was set up as follows with each well in duplicate: 15 μL assay buffer+10 μL ENPP1 inhibitor or DMSO+50 μL Substrate+25 μL Enzyme. Both the enzyme and substrate were added to opposite sides of the well to ensure that there was no interaction until all wells had both components. The plate was then centrifuged gently for 10 seconds, followed by an incubation at 37° C. for 45 minutes. The reaction was quantified by measuring absorbance at 405 nm using the Envision.
IC50 values are determined using GraphPad Prism 5 software. The data were entered as an X-Y plot into the software as percent inhibition for each concentration of the drug. The concentration values of the drug were log transformed and the nonlinear regression was carried out using the “sigmoidal dose-response (variable slope)” option within the GraphPad software to model the data and calculate IC50 values. The IC50 values reported are the concentration of drug at which 50% inhibition was reached.

[2] = target: Recombinant Human ENPP-1 Protein (purified in-house) (Homo sapiens (Human), UniProt P22413); experiment: ENPP1 Assay (TMP), Example 2; format: biochemical
Recombinant Human ENPP-1 Protein (purified in-house), sequence (P22413 whole entry, looked up): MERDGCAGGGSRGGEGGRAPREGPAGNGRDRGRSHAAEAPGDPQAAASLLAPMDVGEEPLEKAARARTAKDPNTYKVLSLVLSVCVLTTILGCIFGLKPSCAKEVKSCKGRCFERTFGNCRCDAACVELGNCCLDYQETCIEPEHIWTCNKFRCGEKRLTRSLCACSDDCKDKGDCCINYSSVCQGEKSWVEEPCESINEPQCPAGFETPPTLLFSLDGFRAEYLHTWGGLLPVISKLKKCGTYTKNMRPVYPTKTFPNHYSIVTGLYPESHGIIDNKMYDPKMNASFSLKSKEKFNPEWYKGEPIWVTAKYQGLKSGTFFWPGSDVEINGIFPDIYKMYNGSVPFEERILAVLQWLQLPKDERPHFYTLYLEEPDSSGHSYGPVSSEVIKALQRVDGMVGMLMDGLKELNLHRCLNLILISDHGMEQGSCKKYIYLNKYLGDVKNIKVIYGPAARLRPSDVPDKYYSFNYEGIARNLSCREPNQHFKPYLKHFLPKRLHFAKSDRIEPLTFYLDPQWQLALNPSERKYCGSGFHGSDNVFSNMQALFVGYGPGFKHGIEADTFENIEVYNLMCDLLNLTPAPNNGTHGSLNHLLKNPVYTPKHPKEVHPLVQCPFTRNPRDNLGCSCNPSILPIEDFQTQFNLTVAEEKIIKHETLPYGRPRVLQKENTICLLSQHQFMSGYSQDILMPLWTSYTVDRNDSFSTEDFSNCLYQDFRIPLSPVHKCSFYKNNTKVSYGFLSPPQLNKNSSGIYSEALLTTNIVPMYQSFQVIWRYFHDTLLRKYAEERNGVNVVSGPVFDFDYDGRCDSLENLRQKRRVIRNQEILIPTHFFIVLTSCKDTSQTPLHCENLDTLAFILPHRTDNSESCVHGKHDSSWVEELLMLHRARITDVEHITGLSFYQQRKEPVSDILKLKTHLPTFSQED
Experimental: Enzyme: 1 ng/μL Recombinant Human ENPP-1 Protein (purified in-house)—Assay Conc.: 5 ng/well of DMSO in 96-well clear assay plates.
as §1, with “A ten” for “An eight”, “75” for “15”, “DMSO Dilutions+10” for “DMSO+50”, “Substrate+5” for “Substrate+25”, “Enzyme (5 ng).” for “Enzyme.”, “Envision Plate Reader.” for “Envision.”

B16F10 tumor = experiment: Anti-tumor efficacy in B16F10 (melanoma) syngeneic model; format: in vivo, C57BL/6 mice
From the text: Animals: Female C57BL/6 (4-6 week's age from Taconic).
The B16F10 cells were propagated in DMEM cell culture medium containing 10% Fetal Bovine Serum. Cells were harvested in logarithmic growth phase and implanted subcutaneously ([…]) in the lower abdomen of mice. Tumor growth was monitored daily and after the tumors had reached 80 to 100 mm3, mice were randomized into groups consisting of 8 animals per group. Animals were euthanized when tumors reached around 2000 mm^3 or treatment regime completed or 20% of body weight loss, or developed ulceration and necrosis. Upon termination, tumor samples and blood were collected and analyzed for biomarkers.

Saos-2 Cells = experiment: ENPP1 Mineralization Assay; format: cell-based; conditions: FIG. 9, mineralization components for 3 days

selective at inhibiting ENPP1 but not ENPP2 [1]: selective
inhibiting the activity of ENPP2 ([1]; FIGS. 2A and 2B): ineffective
IC50 ([2]; FIG. 5A, TMP substrate, read-out: IC50): 0.271 µM
IC50 ([2]; Table 5, TMP substrate, read-out: ENPP1 (IC50 μM) TMP): 0.271 µM
Compound: COc1ccc(NC(=O)CSc2nc3c(C)c(C#N)ncc3[nH]2)cc1O [Compound 78, 2-((6-Cyano-7-methyl-3H-imidazo[4,5-c]pyridin-2-yl)thio)-N-(3-hydroxy-4-methoxyphenyl) acetamide]
B16F10 tumor growth inhibition (B16F10 tumor; 30 mg/kg dose (FIG. 6A / FIG. 13A)): 28%
B16F10 tumor growth inhibition (B16F10 tumor; FIG. 6B / FIG. 13B, dose and route not stated): 27%
total mineralization (Saos-2 Cells): significant decrease
